Among the test systems are HCC 2998; HCT-15; HOP-62; KM12; LOX IMVI; MOLT-4; OVCAR-3; RPMI-8226; SK-MEL-28; SK-MEL-2; SNB-19; SW-620; U-251; UACC-62; MCF7; MDA-MB-231; UACC-257.
Holding throughout (experiment): growth of human tumour cells (NCI), 48 h

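How tested: cells in 96-well plates exposed to compound for 48 hours at five concentrations. Here, GI50 denotes the concentration required for 50% inhibition of growth.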 Calls of active or inactive are those of the source. Cut-off read from the data, not from the text of the source: active = GI50 up to about 1.1 µM and inactive = higher. A value given as a limit tells only on which side of the number the result lay.

In the case of `COc1ccc(-c2cc(O)c3cc4c(cc3n2)OCO4)cc1OC`, the GI50 is > 100 µM (inactive) in the test on HCC 2998; more than 100 µM with HCT-15; > 100 µM (inactive) with HOP-62; > 100 µM (inactive) in the test on KM12; > 100 µM (inactive) with LOX IMVI; > 100 µM (inactive) in the test on MOLT-4. Moreover, the GI50 in the test on OVCAR-3, in the test with RPMI-8226, in the test on SK-MEL-28, in the test on SK-MEL-2, in the test on SNB-19 and in the test on SW-620 was > 100 µM (inactive) throughout. Besides, the GI50 with U-251 and in the test on UACC-62 was > 100 µM (inactive) in each case.
Regarding `CCOC(=O)c1c(N)sc2c1C(C(=O)OCC)CC2` (configuration not stated), the GI50 in the test on HCC 2998 was > 100 µM (inactive); in the test on HCT-15, more than 100 µM; in the test on HOP-62 it was > 100 µM (inactive); with KM12, > 100 µM (inactive); in the test with MCF7, > 100 µM (inactive); with MDA-MB-231, 76.7 µM (inactive). For the same compound, the GI50 with MOLT-4 is 35.6 µM (inactive); in the test on RPMI-8226 it was 45.3 µM (inactive); in the test with SK-MEL-28, > 100 µM (inactive); with SK-MEL-2, > 100 µM (inactive); in the test on SNB-19, > 100 µM (inactive); in the test on SW-620, > 100 µM (inactive). The GI50 with U-251 is 73.3 µM (inactive); in the test with UACC-257, > 100 µM (inactive); with UACC-62 it was 91.4 µM (inactive).
With `CC(=O)Nc1ccc(/C=C(\NC(=O)c2ccccc2)c2nc3ccc4c(c3[nH]2)C(=O)c2ccccc2C4=O)cc1`, the GI50 with HCC 2998 was > 100 µM (inactive); in the test with HCT-15, 39.2 µM; in the test on HOP-62, > 100 µM (inactive); in the test on LOX IMVI it was 15.1 µM (inactive); with MOLT-4, 2.88 µM (inactive); in the test on OVCAR-3, 12.4 µM (inactive). Further, the GI50 is 4.46 µM (inactive) with RPMI-8226; 45 µM (inactive) with SK-MEL-28; 48.8 µM (inactive) in the test on SK-MEL-2; 35.2 µM (inactive) in the test with SNB-19; 18.9 µM (inactive) in the test with SW-620; 16.4 µM (inactive) with U-251. Besides, the GI50 in the test with UACC-257 was > 100 µM (inactive); in the test on UACC-62 it was 17.9 µM (inactive).
Consider `CCOC(=O)C1Cc2c(ccc(OC)c2OC)C(=O)C1N` (configuration not stated), for which the GI50 is > 100 µM (inactive) in the test on HCC 2998; more than 100 µM in the test with HCT-15; > 100 µM (inactive) in the test with HOP-62; > 100 µM (inactive) in the test with KM12; > 100 µM (inactive) with LOX IMVI; 91.4 µM (inactive) in the test with MOLT-4. Besides, the GI50 in the test with OVCAR-3 was 93.1 µM (inactive); in the test with RPMI-8226 it was > 100 µM (inactive); in the test with SK-MEL-28, > 100 µM (inactive); in the test on SK-MEL-2, > 100 µM (inactive); in the test with SNB-19 it was > 100 µM (inactive); in the test on SW-620, > 100 µM (inactive). The GI50 in the test with U-251, in the test with UACC-257 and in the test on UACC-62 was > 100 µM (inactive) throughout.
`COc1ccc2c(c1)C(=O)Cc1ccccc1CC2`: the GI50 was > 100 µM (inactive) in the test with HCC 2998; more than 100 µM in the test with HCT-15; > 100 µM (inactive) in the test with KM12; > 100 µM (inactive) with LOX IMVI; > 100 µM (inactive) in the test on MOLT-4; > 100 µM (inactive) in the test with OVCAR-3. Besides, the GI50 was > 100 µM (inactive) in the test on RPMI-8226; > 100 µM (inactive) in the test on SK-MEL-28; 81.5 µM (inactive) with SK-MEL-2; > 100 µM (inactive) in the test on SNB-19; > 100 µM (inactive) in the test with SW-620; > 100 µM (inactive) with U-251. The GI50 in the test with UACC-257 and in the test on UACC-62 was > 100 µM (inactive) in each case.
Regarding `CCc1ccccc1NC(=O)C(=O)C1C(=O)N(c2ccccc2)N=C1N` (configuration not stated), the GI50 was > 100 µM (inactive) in the test on HCC 2998; more than 100 µM with HCT-15; > 100 µM (inactive) in the test with HOP-62; > 100 µM (inactive) in the test with KM12; > 100 µM (inactive) with LOX IMVI; 8.3 µM (inactive) in the test with MOLT-4. In addition, the GI50 in the test with OVCAR-3, in the test with RPMI-8226, in the test with SK-MEL-28, in the test with SK-MEL-2, in the test with SNB-19 and in the test with SW-620 was > 100 µM (inactive) in each case. The GI50 with U-251, in the test on UACC-257 and in the test on UACC-62 was > 100 µM (inactive) throughout.
Turning to `CC(CNCCCNCCNCCCNCO)[N+](=O)[O-]` (configuration not stated), the GI50 was 16.6 µM (inactive) in the test on HCC 2998; 10.8 µM with HCT-15; > 100 µM (inactive) in the test with HOP-62; 16.1 µM (inactive) with KM12; 14.4 µM (inactive) in the test with LOX IMVI; 4.12 µM (inactive) in the test on MOLT-4. Besides, the GI50 in the test with OVCAR-3 is 16.5 µM (inactive); in the test on RPMI-8226, 5.06 µM (inactive); in the test on SK-MEL-28, 13.6 µM (inactive); in the test on SK-MEL-2, 15.5 µM (inactive); with SNB-19, > 100 µM (inactive); in the test on SW-620 it was 3.6 µM (inactive). Further, the GI50 in the test with U-251 is 15.9 µM (inactive); in the test with UACC-257, 13.3 µM (inactive); with UACC-62, 16 µM (inactive).
For `CC(=O)n1c2c(c(=O)n1-c1ccccc1)[S+]([O-])CCC2` (configuration not stated), the GI50 in the test on HCC 2998 was < 0.01 µM (active); in the test on HCT-15 it was 21.7 µM; in the test with HOP-62, 11.1 µM (inactive); with KM12, 9.1 µM (inactive); in the test on LOX IMVI it was > 58.3 µM (inactive); with MOLT-4, 1.25 µM (inactive). In addition, the GI50 in the test with OVCAR-3 was 57.1 µM (inactive); in the test with RPMI-8226 it was 6.08 µM (inactive); with SK-MEL-28, > 100 µM (inactive); in the test with SK-MEL-2, > 84.7 µM (inactive); in the test with SNB-19, > 100 µM (inactive); in the test on SW-620 it was 33.3 µM (inactive). Also, the GI50 in the test on U-251 is > 100 µM (inactive); with UACC-257, 46.7 µM (inactive); in the test on UACC-62, 20.3 µM (inactive).
Consider `C=C1C(=O)C23[C@H](O)C1CC[C@H]2[C@]12COC3(O)[C@@H](O)[C@@H]1C(C)(C)CC[C@@H]2O`, for which the GI50 in the test with HCC 2998 is 15.8 µM (inactive); with HCT-15, 3.33 µM; with HOP-62, 20.6 µM (inactive); in the test with KM12, 16.9 µM (inactive); in the test with LOX IMVI, 14.2 µM (inactive); in the test on MOLT-4 it was 3.27 µM (inactive). Also, the GI50 was 14.8 µM (inactive) in the test with OVCAR-3; 4.08 µM (inactive) with RPMI-8226; 2.72 µM (inactive) in the test on SK-MEL-28; 2.28 µM (inactive) in the test on SK-MEL-2; 18.5 µM (inactive) with SNB-19; 1.84 µM (inactive) with SW-620. For the same compound, the GI50 was 6.04 µM (inactive) in the test on U-251, 15.5 µM (inactive) in the test with UACC-257 and 10.9 µM (inactive) with UACC-62.
As to `CC(=O)OCCOCNC(=S)N/N=C(\C)c1cccs1`, the GI50 is > 100 µM (inactive) with HCC 2998; more than 100 µM in the test with HCT-15; > 100 µM (inactive) in the test with HOP-62; > 100 µM (inactive) in the test with KM12; > 100 µM (inactive) with LOX IMVI; > 100 µM (inactive) in the test on MOLT-4. Further, the GI50 in the test with OVCAR-3, with RPMI-8226, in the test on SK-MEL-28, in the test on SK-MEL-2, with SNB-19 and in the test with SW-620 was > 100 µM (inactive) each time. Besides, the GI50 in the test with U-251, with UACC-257 and in the test on UACC-62 was > 100 µM (inactive) throughout.
For `COc1cc(-c2cc(CCC(=O)Nc3ccccc3[N+](=O)[O-])n(-c3ccc([N+](=O)[O-])cc3[N+](=O)[O-])n2)ccc1O`, the GI50 with HCC 2998 is > 10 µM (inactive); in the test on HCT-15, 40.7 µM; in the test on HOP-62, > 10 µM (inactive); with KM12 it was > 10 µM (inactive); in the test on LOX IMVI, > 10 µM (inactive); in the test with MOLT-4, > 10 µM (inactive). Besides, the GI50 in the test with OVCAR-3, in the test with RPMI-8226, in the test on SK-MEL-28, in the test with SK-MEL-2, in the test with SNB-19 and in the test on SW-620 was > 10 µM (inactive) throughout. The GI50 is > 10 µM (inactive) in the test with U-251, > 10 µM (inactive) in the test with UACC-257 and 38.4 µM (inactive) in the test with UACC-62.
With `COc1cccc(/C=N/NC(N)=O)c1O`, the GI50 with HCC 2998 is > 100 µM (inactive); in the test on HCT-15 it was more than 100 µM; in the test with HOP-62, > 100 µM (inactive); with KM12 it was > 100 µM (inactive); in the test on LOX IMVI, > 100 µM (inactive); in the test with MOLT-4, > 100 µM (inactive). For the same compound, the GI50 in the test on OVCAR-3, in the test on RPMI-8226, in the test with SK-MEL-28, in the test with SK-MEL-2, in the test with SNB-19 and in the test on SW-620 was > 100 µM (inactive) in each case. In addition, the GI50 in the test on U-251, with UACC-257 and with UACC-62 was > 100 µM (inactive) in each case.
For the compound `COc1cc2c(cc1O)[C@H](C)C(c1ccc(OC)c(OC)c1)O2` (some centres not stated), the GI50 in the test with HCC 2998 is 7.6 µM (inactive); in the test with HCT-15, 3.08 µM; in the test with HOP-62, 9.46 µM (inactive); in the test with KM12, 16.7 µM (inactive); with LOX IMVI it was 4.13 µM (inactive); in the test with MOLT-4, 6.41 µM (inactive). In addition, the GI50 in the test with OVCAR-3 was 5.66 µM (inactive); in the test on RPMI-8226, 8.2 µM (inactive); in the test on SK-MEL-28, 9.75 µM (inactive); in the test with SK-MEL-2 it was 3.1 µM (inactive); with SNB-19, 1.68 µM (inactive); in the test on SW-620, 4.2 µM (inactive). In addition, the GI50 in the test with U-251 was 5.87 µM (inactive); with UACC-257 it was 10.9 µM (inactive); in the test on UACC-62, 3.09 µM (inactive).

Values taken from ChEMBL document CHEMBL1201862, “PubChem BioAssay data set” (2004).
